Test results: patent publication US20090131309A1, “ICA512 COUPLES INSULIN SECRETION AND GENE EXPRESSION IN BETA-CELLS” (Technische Universität Dresden Medizinizche Fakultät Carl …, priority 2004, published 2009)

Columns and labels:
ICA512-TMF [1] = experiment: Stimulus-induced decrease of ICA512-TMF in rat pancreatic islets (western blot); assay type: cell-based; conditions: purified rat pancreatic islets; with or without 60 μM calpeptin
Experimental: Islet isolation and cell culture. Pancreatic islets were isolated from female Wistar rats by collagenase digestion, purified by density gradient centrifugation, and cultured (400/60 mm culture dish) as described previously (26). INS-1 cells were grown as described (27). Cell extracts and western blotting. Wild type and transfected INS-1 cells and rat pancreatic islets (350-450) were pre-incubated for 60 minutes in resting buffer containing 0 mM glucose and 5 mM KCl and then incubated for various times in fresh resting or stimulating buffer including 25 mM glucose and 55 mM KCl, as previously described (7). […] Next, the cells were washed with ice cold PBS, and extracted in lysis buffer (10 mM Tris-HCl at pH 8.0, 140 mM NaCl, 1% Triton X-100, 1 mM EDTA, 1 mM PMSF, and 1% protease inhibitor cocktail (Sigma, St. Louis, Mo.) at 4° C. Cytosolic and nuclear extracts were prepared using the NE-PER Nuclear and Cytoplasmic Extraction Reagents (Pierce, Rockford, Ill.) in accordance with the manufacturer's instructions. Protein concentration was measured using the Bio-Rad Protein Assay Reagent (Bio-Rad, Hercules, Calif.). Equivalent amount of protein was separated by 8-10% SDS-PAGE, except for nuclear extracts, in which case half of the protein were loaded compared to the corresponding cytosolic extracts. […] Quantitation of protein signals was performed with the Image Gauge v3.45 software (Fuji).

pro-ICA512 = experiment: Immunoblot for pro-ICA512 and ICA512-TMF in INS-1 cells; assay type: cell-based, rat; conditions: 60 μM Calpeptin
Experimental: Culture of INS-1 cells. INS-1 cells were grown as described^27. In some instances cells were pre-incubated for 1 hour in resting buffer (0 mM glucose, 5 mM KCl) and then for 2 or 6 hours in resting or stimulating (25 mM glucose, 55 mM KCl) buffers as described^7. Calpeptin (Calbiochem) was added in the last 15 minutes of the pre-incubation, and then for the entire following period before cells were harvested. Cells were stimulated with 20 nM human growth hormone (hGH) for 20 minutes following 18 hours incubation in low serum medium (LSM) containing RPMI-1640, 11 mM glucose, 0.5% FBS 25 mM HEPES, 1% penicillin-streptomycin and 0.05 mM β-mercaptoethanol. After washing, cells were either harvested or incubated in LSM for 6 additional hours. For immunoprecipitation cells were collected 1 hour after stimulation with hGH.
Cell extracts and western blotting. INS-1 cells and pancreatic islets were harvested at 4° C. in RIPA buffer [50 mM Tris-HCl at pH 8.0, 150 mM NaCl, 1% NP-40, 0.1% SDS, 0.5% sodium deoxycholate, and 1× protease inhibitor cocktail (Sigma)] to obtain total extracts. Insoluble material was removed by centrifugation. Cytosolic and nuclear extracts were prepared using the NE-PER Nuclear and Cytoplasmic Extraction Reagents (Pierce). Proteins were separated by 8-10% SDS-PAGE and immunoblotted with the following antibodies: mouse monoclonals anti-ICA512^7, anti-STAT5 (Santa Cruz), anti-γ-tubulin and anti-HA (Sigma); rabbit anti-PY-STAT5 and anti-STAT3 (Cell Signaling); affinity purified goat anti-GFP IgGs. Chemiluminescence was developed using the Supersignal West Pico or Femto kits (Pierce) and detected with a LAS 3000 Bioimaging System (Fuji). Protein signals were quantified with the Image Gauge v3.45 software (Fuji). Half the amount of nuclear extract proteins were immunoblotted relative to total and cytosolic extract proteins.

ICA512-TMF [2] = experiment: Stimulus-induced cleavage of ICA512-TMF in INS-1 cells (western blot); assay type: cell-based, rat
Experimental: Cell extracts and western blotting. Wild type and transfected INS-1 cells and rat pancreatic islets (350-450) were pre-incubated for 60 minutes in resting buffer containing 0 mM glucose and 5 mM KCl and then incubated for various times in fresh resting or stimulating buffer including 25 mM glucose and 55 mM KCl, as previously described (7). […] Next, the cells were washed with ice cold PBS, and extracted in lysis buffer (10 mM Tris-HCl at pH 8.0, 140 mM NaCl, 1% Triton X-100, 1 mM EDTA, 1 mM PMSF, and 1% protease inhibitor cocktail (Sigma, St. Louis, Mo.) at 4° C. Cytosolic and nuclear extracts were prepared using the NE-PER Nuclear and Cytoplasmic Extraction Reagents (Pierce, Rockford, Ill.) in accordance with the manufacturer's instructions. Protein concentration was measured using the Bio-Rad Protein Assay Reagent (Bio-Rad, Hercules, Calif.). Equivalent amount of protein was separated by 8-10% SDS-PAGE, except for nuclear extracts, in which case half of the protein were loaded compared to the corresponding cytosolic extracts. After protein transferring, nitrocellulose filters were incubated with the following antibodies: mouse monoclonal anti-ICA512 (6), anti-μ-calpain (Chemicon, Temecula, Calif.), anti-γ-tubulin and anti-HA (Sigma), anti-GFP (Clontech); rabbit polyclonals anti-Glut2 (Alpha Diagnostics International, St Antonio, Tex.), anti-CPE (Chemicon), anti-GFP (Molecular Probes, Eugene, Oreg.) and anti-HA (kind gift of Christoph Thiele). Chemiluminescence was developed using the Supersignal West Pico Substrate (Pierce) as substrate and detected with a LAS 3000 Bioimaging System (Fuji, Tokyo, Japan). Quantitation of protein signals was performed with the Image Gauge v3.45 software (Fuji).

## CCCC[C@@H](C=O)NC(=O)[C@H](CC(C)C)NC(=O)OCc1ccccc1 [calpeptin]
ICA512-TMF [1]
  decrease of ICA512-TMF upon stimulation: calpeptin-sensitive decrease of ICA512-TMF
pro-ICA512; cells stimulated for 2 hours
  rapid induction of pro-ICA512: did not prevent the rapid induction of pro-ICA512
pro-ICA512; cells stimulated for 6 hours
  greater induction of pro-ICA512 and decrease of ICA512-TMF: partially inhibited
ICA512-TMF [2]; INS-1 cells, stimulating buffer (25 mM glucose, 55 mM KCl) 105 min, western blot
  Ca2+-dependent cleavage of ICA512-TMF cytoplasmic domain upon stimulation: prevented in a dose-dependent manner
ICA512-TMF [2]; cytosolic extracts of ICA512-GFP INS-1 cells, 60 μM calpeptin
  stimulation induced proteolysis of ICA512-TMF-GFP: calpeptin-sensitive proteolysis of ICA512-TMF-GFP
ICA512-TMF [2]; stimulated INS-1 cells expressing dynamin 1 (K44A)-GFP
  increased proteolysis of ICA512-TMF in dynamin 1 (K44A)-GFP cells: inhibited by calpeptin in a dose-dependent fashion
